Measurements from patent US9694027B2, “Pyrazole derivative and use thereof for medical purposes” (KISSEI PHARMACEUTICAL CO. LTD., priority 2012, dated 2017).

Tests used:
[1] = tested on: rat model of low-fiber diet-induced constipation; assay: Rat model of low-fiber diet-induced constipation (Example 2)
Procedure: Compound 2 was weighed and was dissolved in distilled water at preparation concentrations of 3, 10 and 30 mg/mL as the free drug to prepare test compounds.
0.5% methylcellulose (0.5% MC) was used as a vehicle for preparation of lubiprostone. Lubiprostone was weighed and was suspended in 0.5% MC at preparation concentrations of 1, 3 and 10 mg/mL to prepare control substances.
Magnesium sulfate (MgSO4) (Wako pure chemical) was weighed and was dissolved in distilled water at a preparation concentrations of 200 mg/mL to prepare a positive control substance.
A soluble starch, sucrose and lactose monohydrate were weighed at a rate of 6:3:1 and were dissolved in distilled water which was approximately 80% of the amounts of preparation on heating, and then the mixture was added with distilled water to prepare 0.4 g/mL solution of mixed carbohydrate.
A low-fiber diet was prepared based on the literature (Kakino et al. BMC Complementary and Alternative Medicine 2010, 10: 68).
Rats were fed on the low-fiber diet for 1-2 weeks to induce constipation.
Compound 2 (3 mg/kg, 10 mg/kg or 30 mg/kg as free drug), lubiprostone (1 mg/kg, 3 mg/kg or 10 mg/kg), MgSO4 (2000 mg/kg) or a vehicle (distilled water: Control group 1, 0.5% MC: Control group 2) was administered orally at around 9 a.m. using a 1 mL glass syringe and a stomach tube. Then, 0.4 g/mL solution of mixed carbohydrate was administered orally at 2 mL/body to Control group 1 and the groups administered with Compound 2. Distilled water was administered to the normal feed group.
The sum of the fecal weights at the collection times was set as the fecal weight at 24 hours after the administration.
The statistical analysis was made by testing the uniformity of variance using Bartlett's method, and multiple comparison between Control group 1 and the group administered with Compound 2 or Control group 2 and the group administered with lubiprostone was made using Dunnett's method when variance was uniform respectively, and multiple comparison was made using Steel's method when variance was not uniform. In each case, significance level<5% was considered as significant difference.

healthy adult males = assay: Multiple-dose study in healthy adult males (Example 4); assay type: in vivo, human
Procedure: Compound 2 at a dose of 2, 5, 10 or 20 mg (free drug equivalent), a placebo, or miglitol at a dose of 50 mg was repetitively administered orally once daily just immediately before breakfast on administration Days 1 and 13, and 3 times daily just immediately before every meal on administration Days 3 to 12 to healthy adult males. For the administration of Compound 2, tablets containing 1, 5 or 10 mg in free drug equivalent were used. The test period was set between administration Day 1 and Day 15. Frequencies of bowel movements were checked during consultation by a doctor, and the adverse events (gastrointestinal disorders) were defined when an abnormal finding (diarrhea or loose stool) was seen based on the stool form and the finding. In this regard, the frequencies of bowel movements in Table 8 show the daily means during fifteen days (time/day).

[2] = tested on: Loperamide-induced dog constipation model; assay: Loperamide-induced dog constipation model (Example 1); assay type: in vivo; settings: for Dry fecal weight within 24 hours after the administration / Wet fecal weight within 24 hours after the administration / Frequency of bowel movement within 24 hours after the administration: mean of 10 dogs; for Dry fecal weight within 24 hours after the administration: Control group 1.0, Normal group 47.1; for Wet fecal weight within 24 hours after the administration: Control group 2.8, Normal group 136.2; for Frequency of bowel movement within 24 hours after the administration: observation at 17, 21, 24 hours, Control group 0.2, Normal group 2.1
Procedure: Lubiprostone (TLC Pharma Chem) was weighed and was suspended in 0.5% methylcellulose at preparation concentrations of 0.05 and 0.35 mg/mL to prepare control substances.
Loperamide hydrochloride (Wako pure chemical) was weighed at 0.3, 0.5, 1.0, 2.0, 4.0 or 8.0 mg/kg for each animal and was filled into a gelatin capsule.
Loperamide hydrochloride which was filled into a gelatin capsule was orally administered to dogs (beagle, male, 13-14 months old, 10 dogs, Kitayama-labesu). The dosage was increased from 0.3 mg/kg, and was set at 2.0, 4.0 or 8.0 mg/kg based on the bowel movement condition of each dog.
Tests were performed as a full cross-over trial. More than 5-day washout period was provided between each test, and a recovery of stool form was identified, and then the next test was performed.
A gelatin capsule which was filled with loperamide hydrochloride was administered orally at around 9 a.m. on the first and second days in each test.
The stool form of feces was scored in seven categories based on Bristol Stool Form Scale. The collected feces were dried fully, and then the feces were weighed, and it was set as the dry fecal weight.

What does the source list for `O=S(=O)([O-])[O-].[Mg+2]` [MgSO4, Magnesium sulfate]?
Watery stool ([1]; 2000 mg/kg): watery stool was reported; Fecal weight, effect of positive control ([1]; 2000 mg/kg oral): increase of the fecal weight was also shown; Fecal weight within 24 hours after the administration ([1]; 2000 mg/kg oral, positive control, n=4, Control group 1 0.53): 3.70 g

For `OCCN1C[C@H](O)[C@@H](O)[C@H](O)[C@H]1CO` [Miglitol, miglitol, reference compound], which “Daily frequency of bowel movement after the administration, Mean” value (healthy adult males; 50 mg, once daily Days 1 and 13, 3 times daily Days 3 to 12, daily mean during fifteen days, 8 subjects, Placebo 1.0) is on record?
Its value is 1.0 time/day.

What about the “Number of subject with gastrointestinal disorders: Abdominal pain” value (healthy adult males; multiple dose 50 mg, of 8 subjects, Placebo 0) of the same molecule?
Its value is 0.

What about the “Number of subject with gastrointestinal disorders: Diarrhea” value (healthy adult males; multiple dose 50 mg, of 8 subjects, Placebo 3) of the same molecule?
The value was 2.

Which results are given for `CCCCC(F)(F)[C@@]1(O)CC[C@H]2[C@@H](CC(=O)[C@@H]2CCCCCCC(=O)O)O1` [lubiprostone, Lubiprostone, reference compound]?
Fecal weight within 24 hours after the administration ([1]; 1 mg/kg oral in 0.5% MC, n=5, Control group 2 0.58): 0.60 g; Fecal weight within 24 hours after the administration ([1]; 3 mg/kg oral in 0.5% MC, n=5, Control group 2 0.58): 0.95 g; Fecal weight within 24 hours after the administration ([1]; 10 mg/kg oral in 0.5% MC, n=5, Control group 2 0.58): 1.25 g; Fecal weight during 24 hours versus Control group ([1]; 10 mg/kg, versus Control group 2, significance level <5%): significantly higher than in each Control group; Dose dependence of fecal weight during 24 hours after the administration ([1]; oral): dose-dependently increased; Wet fecal weight, dry weight and frequency of bowel movements versus Control group ([2]; 0.1 mg/kg or more, significance level <5%): significantly higher than in Control group; Dry fecal weight within 24 hours after the administration ([2]; 0.1 mg/kg oral): 8.3 g; Wet fecal weight within 24 hours after the administration ([2]; 0.1 mg/kg oral): 18.7 g; Frequency of bowel movement within 24 hours after the administration ([2]; 0.1 mg/kg oral): 0.9 time; Dry fecal weight within 24 hours after the administration ([2]; 0.7 mg/kg oral): 21.5 g; Wet fecal weight within 24 hours after the administration ([2]; 0.7 mg/kg oral): 55.4 g; Frequency of bowel movement within 24 hours after the administration ([2]; 0.7 mg/kg oral): 1.0 time; Increases of loose stool and diarrhea ([2]; all doses of this test): not observed; Dose dependence of wet fecal weight, dry weight and frequency of bowel movements ([2]; within 24 hours after oral administration): dose-dependently increased
